This is an account of results in patent US6894074B2, “Synergistic insecticidal mixtures” (Bayer Aktiengesellschaft, priority 1999, dated 2005).

What all share (type): in vivo
The subject of one experiment is Bemisia tabaci. As to the kind of experiment: Field spray test against Bemisia tabaci on cotton, efficacy by the method of Abbott. The note with it: larvae on cotton. The protocol: The spray liquor (1000 l of water/ha) comprising the active compound(s) was applied using a knapsack sprayer operated by pressurized air. The plot size was 19 m^2. The effect was evaluated 7, 10 and 14 days after the application by determining the number of larvae still alive on the leaf undersurface (10 leaves/plot) and calculating the efficacy by the method of Abbott.

In another experiment the test system is Aphis gossypii. The experiment is described as follows: Field spray test against Aphis gossypii on courgettes, efficacy by the method of Abbott. The settings on record: 4 spray applications. The procedure:
The spray liquor (1000 l of water/ha) comprising the active compound(s) was applied using a knapsack sprayer operated with compressed air. 4 spray applications were carried out at intervals of 9-13 days. The plot size was 12 m^2. The effect on the aphids was determined 7, 16 and 29 days after the last application (start of the infestation after the 2nd treatment) by counting the animals which were still alive/leaf (10 leaves/plot) and calculating the efficacy by the method of Abbott.

A further experiment has as its system white fly Bemisia tabaci. The experiment is described as follows: Bemisia test: infested cotton plants dipped into preparation of active compound, kill in %. The settings on record: 4 ppm active compound. From the text: The expected activity for a given combinatin of two active compounds can be calculated as follows (according to S. R. Colby, Weeds 15 (1967), 20-22):
If the actual activity exceeds the calculated value, then the activity of the combination is superadditive, i.e. a synergistic effect exists. In this case, the efficacy which was actually observed must be greater than the value for the expected efficacy (E) calculated from the abovementioned formula.
To produce a suitable preparation of active compound, 1 part by weight of active compound is mixed with the stated amounts of solvent and emulsifier, and the concentrate is diluted with water to the desired concentrations.
Cotton plants (Gossypium hirsutum) which are infested by eggs, larvae and puparia of the white fly Bemisia tabaci are dipped into a preparation of active compound of the desired concentration.
After the desired period of time, the kill in % is determined. 100% means that all animals have been killed; 0% means that none of the animals have been killed.

Consider `N#C/N=C1\SCCN1Cc1ccc(Cl)nc1` [IIk], for which the “Efficacy % Abbott” value with Bemisia tabaci (0.096 kg of active compound/ha, 7 days after treatment) was found to be 86%; with Bemisia tabaci (0.096 kg of active compound/ha, 10 days after treatment), 61%; with Bemisia tabaci (0.096 kg of active compound/ha, 14 days after treatment), 68%.
On to `O=[N+]([O-])/N=C1\NCCN1Cc1ccc(Cl)nc1` [Ex. (IIa)], for which the “Efficacy % Abbott” value in the experiment with Aphis gossypii (0.015 % active compound, 7 days after the last treatment) is recorded as 100%; in the experiment on Aphis gossypii (0.015 % active compound, 16 days after the last treatment), 89%; in the experiment with Aphis gossypii (0.015 % active compound, 29 days after the last treatment), 33%. The “Kill in % after 10 d” value in the experiment with white fly Bemisia tabaci worked out at 0%.
Regarding `Cc1cc(C)c(C2=C(OC(=O)CC(C)(C)C)C3(CCCC3)OC2=O)c(C)c1` [Ex. (Ia)], the “Efficacy % Abbott” value with Aphis gossypii (0.0144 % active compound, 7 days after the last treatment) was 0%; in the experiment with Aphis gossypii (0.0144 % active compound, 16 days after the last treatment), 0%; with Aphis gossypii (0.0144 % active compound, 29 days after the last treatment), 0%; in the experiment on Bemisia tabaci (0.0096 kg of active compound/ha, 7 days after treatment), 49%; with Bemisia tabaci (0.0096 kg of active compound/ha, 10 days after treatment), 87%; with Bemisia tabaci (0.0096 kg of active compound/ha, 14 days after treatment), 78%. For the same compound, the “Kill in % after 10 d” value in the experiment with white fly Bemisia tabaci is on record as 0%.
